Measured values as given in patent US4452991A, “Flavan derivatives useful for impairing RNA virus replication in a cell” (priority 1979, dated 1984).

Key:
virus [1] = assay: plaque reduction (PR) test, antiviral activity in monolayer cell culture; assay type: cell-based; details: compound in nutrient agarose overlay, 50% effective dose vs control, read-out: PR (ED50 /μM)
Experimental: (§1) Activity may be detected by the plaque inhibition (PI) test and measured by the plaque reduction (PR) test. Both assays involve the formation of a monolayer cell culture in a petri dish followed by infection with a virus suspension, and then overlaying the culture with nutrient agarose in the form of a gel. This gel ensures that there is no spread of virus throughout the culture and thus areas of localised cell destruction of plaques are formed.
Detectable activity is measured with the plaque reduction assay. A range of concentrations of compound of known molarity are incorporated in the nutrient agarose overlay. Plaque suppression is proportional to compound concentration. Plaque numbers are expressed as percentages of a control, and a dose responsecurve may be drawn. From this curve 50% of the effective dose (ED50) may be estimated.

virus [2] = assay: Intranasal administration simulation in vitro (compound on lid of petri dish, inhibition of plaque formation); assay type: cell-based; details: 1 μg compound spread on inside of petri dish lid, agarose-covered cells
Excerpt: as §1
In the plaque inhibition test a filter paper disc which holds 0.01 ml when impregnated with a solution of compound is placed on top of the agarose gel. The compound may then diffuse throughout the gel so that its greatest concentration will be around the disc and its lowest concentration towards the periphery of the petri dish. The efficacy of the compound may be detected by observing the zone inhibition of plaque formation.
Petri dishes were prepared, as for the plaque inhibition test and the confluent sheet of cells was covered with a layer of agarose gel. The compound, trans-3-methylflavan (1 μg) was dissolved in ethanol, and applied to the lids of the petri dishes. When the ethanol had evaporated, leaving the compound spread over the inside of the lids, these were replaced on the petri dishes.

Row | SMILES | EC50 (virus [1]) | inhibition of plaque formation (virus [2])
1 | c1ccc2c(c1)C[C@H]1Cc3ccccc3[C@H]1O2 (relative stereo) [Example 5, cis-4b,10,10a,11-tetrahydrobenz(b)indeno(2,1-e)pyran] | 0.38 µM | –
2 | Clc1cc(Cl)c2c(c1)C[C@@H]1CCc3ccccc3[C@@H]1O2 (relative stereo) [Example 7, cis-9,11-dichloro-5,6,6a,12a-tetrahydro-7H-benzo(c)xanthene] | 6 µM | –
3 | Clc1cc(Cl)c2c(c1)C[C@H]1Cc3ccccc3[C@H]1O2 (relative stereo) [Example 9, Cis-6,8-dichloro-4b,10,10a,11-tetrahydrobenz(b)indeno(2,1-e)pyran] | 0.57 µM | –
4 | C[C@@H]1Cc2cc(Cl)ccc2O[C@H]1c1ccc(Cl)cc1 (relative stereo) [Example 2, trans-4',6-dichloro-3-methylflavan] | 0.135 µM | –
5 | c1ccc2c(c1)C[C@@H]1CCc3ccccc3[C@@H]1O2 (relative stereo) [Example 6, cis-5,6,6a,12a-tetrahydro-7H-benzo(c)xanthene] | 0.03 µM | –
6 | C[C@@H]1Cc2ccccc2O[C@H]1c1ccccc1 (relative stereo) [Example 1, trans-3-methylflavan] | 0.125 µM | total inhibition of plaque formation
7 | C[C@H]1Cc2ccccc2O[C@H]1c1ccccc1 (relative stereo) [Example 3, cis-3-methylflavan] | 1.1 µM | –
8 | Clc1cccc2c1O[C@@H]1c3ccccc3C[C@@H]1C2 (relative stereo) [Example 8, cis-6-chloro-4b,10,10a,11-tetrahydrobenz(b)indeno(2,1-e)pyran] | 1.5 µM | –
